Test results as given in patent US9702880B2, “Antisense RNA for treating cancer and inhibition of metastasis and vectors for antisense sequestration” (Istituto Superiore di Sanità, priority 2008, dated 2017).
Where two headings read alike, the source gives them in different places.

Assays:
LNCaP cells = conditions: 10 ng/ml
Method: FIG. 12A Evaluation of cell death and caspase activation in RWPE-1 cells infected with TW3′ or decoy15/16 vectors and treated with 10 ng/ml of docetaxel. Caspase activation was measured after 4 h of treatment. FIG. 12B Evaluation of cell death and caspase activation in LNCaP cells infected with TW or TWmiR-15a/miR-16 vectors and exposed to 10 ng/ml of docetaxel. FIG. 12C-D Evaluation of cell death and caspase activation in miR15a/miR-16 defective or non-defective (normal) primary tumor cells transduced as indicated and treated with 10 ng/ml docetaxel. FIG. 12C. Cell death was measured after 24 h exposure to docetaxel. FIG. 12D. Caspase activation in LNCaP and primary tumor cells was measured after 18 h of treatment. Data are mean±s.d. of at least three independent experiments for each group.
Cell death was evaluated by trypan blue staining, PI staining and flow cytometry analysis, Apo-percentage assay (Biocolor) and Cell Titer kit (Promega). Caspase activation was detected using APO-one Homogeneous Caspase3/7 Assay Kit (Promega).

Wnt3a 3′UTR = experiment: Luciferase reporter assay, pGL3-3′UTR cotransfected with miR oligos; type: cell-based, human; conditions: K562 cells, 25 pmol oligo, 48 hours post-transfection, vs scrambled oligos
Method: (§1) 3′UTR segments of Bcl-2, cyclin D1 and Wnt3a were amplified by PCR from normal human genomic DNA and subcloned into the 3′UTR of the firefly luciferase coding sequence into pGL3-Promoter (Promega), see Supplementary Methods. Then K562 (5×10^4 cells per well) were transfected using Lipofectamine 2000 (Invitrogen) following the manufacturer's instructions. The transfection mix included: (a) 0.8 μg of pGL3-3′UTR plasmid and 50 ng of the control vector pRL-TK (Promega); (b) 25 pmol of either non-targeting RNA control (scrambled) or miR-15a or miR-16 oligonucleotides (Ambion). Forty-eight hours post-transfection, firefly and renilla luciferase activities were measured using the Dual Luciferase Assay kit (Promega). Transfection efficiencies were normalized by calculating the ratio of firefly to renilla. For each construct the relative luciferase activities were calculated by dividing the values obtained in the transfection of miR-15a and miR-16 by those of miR scrambled. Each experiment was performed in duplicate and replicated five times.
(§2) The miR-15a/miR-16 target genes UTRs were cloned in the Xba I site of pGL3 promoter, immediately downstream from the stop codon of the luciferase coding sequence. For Bcl-2, a 3′UTR of 1329 bp fragment was amplified, corresponding to residues 2446-3774 of Genbank Acc No M14745. For cyclin D1 3′UTR, a 1036 bp fragment was amplified ([…] of No NM_053056). For Wnt3a 3′UTR, a 906 bp fragment was amplified (residues 2026-2932 of No NM_033131.2). For 3′UTR cyclin D1 and Wnt3a mutagenesis, a five nucleotide mutation was inserted in the “seed” sequences interacting with miR-15a and miR-16 (see FIGS. 13A-C). Modified and HPLC purified oligonucleotides (Invitrogen) were used for amplification and mutagenesis, performed with Pfu enzyme following the in vitro mutagenesis kit protocol (Invitrogen). Transfection efficiencies of luciferase assays were normalized by calculating the ratio firefly/renilla. For each construct the relative luciferase activities were obtained by dividing the values obtained in the transfection of miR-15a and miR-16 by those of the non targeting miR scrambled. Each experiment was performed in duplicate and replicated five times.
(§3) To validate our targets, we subcloned the 3′UTR of these genes at the 3′ of the cDNA encoding luciferase in an expression construct and performed cotransfection experiments with miR-15a/miR-16. We narrowed our analysis to 1 kb regions harbouring the putative miR-15a/miR-16 target sites. The Bcl-2 3′UTR was tested in parallel as positive control. Luciferase assay was performed by cotransfecting pGL3-3′UTR vectors along with synthetic miR-15a, miR-16 and a control miR with a scrambled sequence.

cyclin D1 3′UTR = experiment: as above; type: cell-based, human; conditions: K562 cells, 25 pmol oligo, 48 hours post-transfection, vs scrambled oligos
Method: as §1, §2, §3

Bcl-2 3′UTR = experiment: Luciferase reporter assay, pGL3-3′UTR cotransfected with miR oligos (positive control); type: cell-based, human; conditions: K562 cells, 25 pmol oligo, 48 hours post-transfection, vs scrambled oligos
Method: as §1
The miR-15a/miR-16 target genes UTRs were cloned in the Xba I site of pGL3 promoter, immediately downstream from the stop codon of the luciferase coding sequence. For Bcl-2, a 3′UTR of 1329 bp fragment was amplified, corresponding to residues 2446-3774 of Genbank Acc No M14745. […]

Pim-1 UTR = experiment: Luciferase reporter assay, pGL3-3′UTR cotransfected with miR oligos; type: cell-based, human; conditions: K562 cells, 48 hours post-transfection, vs scrambled oligos

`CC(=O)O[C@@]12CO[C@@H]1C[C@H](O)[C@@]1(C)C(=O)[C@H](O)C3=C(C)[C@@H](OC(=O)[C@H](O)[C@@H](NC(=O)OC(C)(C)C)c4ccccc4)C[C@@](O)([C@@H](OC(=O)c4ccccc4)[C@H]21)C3(C)C` [docetaxel] was tested, and the “Cytotoxic activity of docetaxel” value (LNCaP cells; empty vector-transduced LNCaP cells) was “scarcely sensitive” and the “Cytotoxic activity of docetaxel” value (LNCaP cells; miR-15a/miR-16 reconstituted LNCaP cells) was “massively killed”.
For “miR-15a: mature miR 15, SEQ ID NO 4, 5′-UAGCAGCACAUAAUGGUUUGUG-3′; synthetic oligonucleotide (Ambion) in reporter assays (listed as RNA, chemistry not given here; listed as Homo sapiens)”, the Luciferase reporter activity (Wnt3a 3′UTR) was “consistent reduction in reporter activity”, the Luciferase reporter activity (cyclin D1 3′UTR) was “consistent reduction in reporter activity” and the Luciferase reporter activity (Bcl-2 3′UTR) was “consistent reduction in reporter activity”. For the same compound, the Luciferase reporter activity (Pim-1 UTR) was “non-targeted region”.
“miR-16: mature miR 16, SEQ ID NO. 5, 5′-UAGCAGCACGUAAAUAUUGGCG-3′; synthetic oligonucleotide (Ambion) in reporter assays (listed as RNA, chemistry not given here; listed as Homo sapiens)” was tested, and the Luciferase reporter activity (Wnt3a 3′UTR) was “consistent reduction in reporter activity”, the Luciferase reporter activity (cyclin D1 3′UTR) was “consistent reduction in reporter activity” and the Luciferase reporter activity (Bcl-2 3′UTR) was “consistent reduction in reporter activity”. For the same compound, the Luciferase reporter activity (Pim-1 UTR) was “non-targeted region”.
